The assay deals with CD73 (Homo sapiens (Human), UniProt P21589). The assay can be described thus: Biochemical assay: inhibition of CD73 activity (AMP hydrolysis, Malachite Green readout). To be noted: CD73 0.3208 nM, AMP 15 μM, 25 mM Tris-HCl pH 7.4, RT, absorbance 620 nm. The method in brief:
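Human CD73 (320 pM final) preincubated 15 min at RT with compounds (10-point ½-log titration from 100 μM, duplicates) in 25 mM Tris-HCl pH 7.4, 5 mM MgCl2, 0.01% Brij-35, 0.01% BSA. 15 μM AMP added, 10 min at RT; released phosphate read by Malachite Green absorbance; IC50 determined.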
Chain of CD73 (P21589 27-574): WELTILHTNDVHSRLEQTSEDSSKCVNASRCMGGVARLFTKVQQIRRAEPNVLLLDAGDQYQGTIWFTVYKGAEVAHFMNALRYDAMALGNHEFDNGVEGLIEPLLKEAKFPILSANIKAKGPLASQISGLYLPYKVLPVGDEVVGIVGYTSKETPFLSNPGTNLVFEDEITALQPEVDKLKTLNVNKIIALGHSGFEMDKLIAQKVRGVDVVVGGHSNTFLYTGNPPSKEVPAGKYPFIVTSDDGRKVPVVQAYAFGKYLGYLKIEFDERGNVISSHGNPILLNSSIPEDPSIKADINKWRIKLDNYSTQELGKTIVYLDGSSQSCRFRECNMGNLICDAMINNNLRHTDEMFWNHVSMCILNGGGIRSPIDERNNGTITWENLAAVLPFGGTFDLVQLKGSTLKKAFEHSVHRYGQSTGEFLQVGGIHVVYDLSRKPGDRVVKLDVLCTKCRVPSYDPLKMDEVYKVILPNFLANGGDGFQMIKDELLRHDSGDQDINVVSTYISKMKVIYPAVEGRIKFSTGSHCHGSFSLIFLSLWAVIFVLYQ
On to `COC[C@](C)(OC[C@H]1O[C@@H](n2ncc3c(NCC4CC4)nc(Cl)nc32)[C@H](O)[C@@H]1O)P(=O)(O)O` [Example 131, ((R)-2-(((2R,3S,4R,5R)-5-(6-chloro-4-((cyclopropylmethyl)amino)-1H-pyrazolo[3,4-d]pyrimidin-1-yl)-3,4-dihydroxytetrahydrofuran-2-yl)methoxy)-1-methoxypropan-2-yl)phosphonic acid], for which the IC50 was not above 100 nM.

In turn, `O=P(O)(O)C(CO)(CO)OC[C@H]1O[C@@H](n2ncc3c(NCC4CC4)nc(Cl)nc32)[C@H](O)[C@@H]1O` [Example 132, (2-(((2R,3S,4R,5R)-5-(6-chloro-4-((cyclopropylmethyl)amino)-1H-pyrazolo[3,4-d]pyrimidin-1-yl)-3,4-dihydroxytetrahydrofuran-2-yl)methoxy)-1,3-dihydroxypropan-2-yl)phosphonic acid] came in with an IC50 not above 100 nM.

`CC(CO)(OC[C@H]1O[C@@H](n2ncc3c(N[C@@H]4CC[C@H]5CCC[C@H]54)nc(Cl)nc32)[C@H](O)[C@@H]1O)P(=O)(O)O` (stereo partly drawn) [Example 133, (2-(((2R,3S,4R,5R)-5-(6-chloro-4-(((1R,3aR,6aR)-octahydropentalen-1-yl)amino)-1H-pyrazolo[3,4-d]pyrimidin-1-yl)-3,4-dihydroxytetrahydrofuran-2-yl)methoxy)-1-hydroxypropan-2-yl)phosphonic aci] showed an IC50 not above 100 nM.

The compound `C[C@@](CO)(OC[C@H]1O[C@@H](n2ncc3c(NC4CCCC4)nc(OCCO)nc32)[C@H](O)[C@@H]1O)P(=O)(O)O` [Example 134, ((R)-2-(((2R,3S,4R,5R)-5-(4-(cyclopentylamino)-6-(2-hydroxyethoxy)-1H-pyrazolo[3,4-d]pyrimidin-1-yl)-3,4-dihydroxytetrahydrofuran-2-yl)methoxy)-1-hydroxypropan-2-yl)phosphonic acid] displayed an IC50 not above 100 nM.

Compound `CC(CO)(OC[C@H]1O[C@@H](n2ncc3c(N[C@@H]4CCC45CCC5)nc(Cl)nc32)[C@H](O)[C@@H]1O)P(=O)(O)O` (stereo partly drawn) [Example 135, (2-(((2R,3S,4R,5R)-5-(6-chloro-4-(((R)-spiro[3.3]heptan-1-yl)amino)-1H-pyrazolo[3,4-d]pyrimidin-1-yl)-3,4-dihydroxytetrahydrofuran-2-yl)methoxy)-1-hydroxypropan-2-yl)phosphonic acid] gave an IC50 not above 100 nM.

Take `CC(CO)(OC[C@H]1O[C@@H](n2ncc3c(N[C@H]4CCC45CCC5)nc(Cl)nc32)[C@H](O)[C@@H]1O)P(=O)(O)O` (stereo partly drawn) [Example 136, (2-(((2R,3S,4R,5R)-5-(6-chloro-4-(((S)-spiro[3.3]heptan-1-yl)amino)-1H-pyrazolo[3,4-d]pyrimidin-1-yl)-3,4-dihydroxytetrahydrofuran-2-yl)methoxy)-1-hydroxypropan-2-yl)phosphonic acid]: the 50% inhibitory concentration (IC50) is not above 100 nM.

Regarding `CCS(=O)(=O)C[C@](C)(OC[C@H]1O[C@@H](n2ncc3c(NC4CCCC4)nc(Cl)nc32)[C@H](O)[C@@H]1O)P(=O)(O)O` [Example 137, ((R)-2-(((2R,3S,4R,5R)-5-(6-chloro-4-(cyclopentylamino)-1H-pyrazolo[3,4-d]pyrimidin-1-yl)-3,4-dihydroxytetrahydrofuran-2-yl)methoxy)-1-(ethylsulfonyl)propan-2-yl)phosphonic acid], the IC50 is not above 100 nM.

In turn, `CCS(=O)(=O)C[C@@](C)(OC[C@H]1O[C@@H](n2ncc3c(NC4CCCC4)nc(Cl)nc32)[C@H](O)[C@@H]1O)P(=O)(O)O` [Example 138, ((S)-2-(((2R,3S,4R,5R)-5-(6-chloro-4-(cyclopentylamino)-1H-pyrazolo[3,4-d]pyrimidin-1-yl)-3,4-dihydroxytetrahydrofuran-2-yl)methoxy)-1-(ethylsulfonyl)propan-2-yl)phosphonic acid] had a half-maximal inhibitory concentration (IC50) not above 100 nM.

Regarding `C[C@@](CO)(OC[C@H]1O[C@@H](n2nnc3c(NC4CCCC4)cc(Cl)nc32)[C@H](O)[C@@H]1O)P(=O)(O)O` [Example 139, ((R)-2-(((2R,3S,4R,5R)-5-(5-chloro-7-(cyclopentylamino)-3H-[1,2,3]triazolo[4,5-b]pyridin-3-yl)-3,4-dihydroxytetrahydrofuran-2-yl)methoxy)-1-hydroxypropan-2-yl)phosphonic acid], the IC50 was not above 100 nM.

For the compound `C[C@](CO)(OC[C@H]1O[C@@H](n2nnc3c(NC4CCCC4)cc(Cl)nc32)[C@H](O)[C@@H]1O)P(=O)(O)O` [Example 140, ((S)-2-(((2R,3S,4R,5R)-5-(5-chloro-7-(cyclopentylamino)-3H-[1,2,3]triazolo[4,5-b]pyridin-3-yl)-3,4-dihydroxytetrahydrofuran-2-yl)methoxy)-1-hydroxypropan-2-yl)phosphonic acid], the IC50 is not above 100 nM.

Consider `CC(CO)(OC[C@H]1O[C@@H](n2ncc3c(N[C@H]4CC[C@@H]5CCC[C@@H]54)nc(Cl)nc32)[C@H](O)[C@@H]1O)P(=O)(O)O` (stereo partly drawn) [Example 141, (2-(((2R,3S,4R,5R)-5-(6-chloro-4-(((1S,3aS,6aS)-octahydropentalen-1-yl)amino)-1H-pyrazolo[3,4-d]pyrimidin-1-yl)-3,4-dihydroxytetrahydrofuran-2-yl)methoxy)-1-hydroxypropan-2-yl)phosphonic acid], for which the IC50 is not above 100 nM.

`COCC(OC[C@H]1O[C@@H](n2nnc3c(NC4CCCC4)nc(Cl)nc32)[C@H](O)[C@@H]1O)P(=O)(O)O` (stereo partly drawn) [Example 142, (1-(((2R,3S,4R,5R)-5-(5-chloro-7-(cyclopentylamino)-3H-[1,2,3]triazolo[4,5-d]pyrimidin-3-yl)-3,4-dihydroxytetrahydrofuran-2-yl)methoxy)-2-methoxyethyl)phosphonic acid] showed an IC50 not above 100 nM.

Turning to `COC[C@@](C)(OC[C@H]1O[C@@H](n2nnc3c(NC4CCCC4)cc(Cl)nc32)[C@H](O)[C@@H]1O)P(=O)(O)O` [Example 143, ((S)-2-(((2R,3S,4R,5R)-5-(5-chloro-7-(cyclopentylamino)-3H-[1,2,3]triazolo[4,5-b]pyridin-3-yl)-3,4-dihydroxytetrahydrofuran-2-yl)methoxy)-1-methoxypropan-2-yl)phosphonic acid], the IC50 is not above 100 nM.

Regarding `O=P(O)(O)[C@H](CO)OC[C@H]1O[C@@H](n2nnc3c(NC4CCCC4)cc(Cl)nc32)[C@H](O)[C@@H]1O` [Example 144, ((R)-1-(((2R,3S,4R,5R)-5-(5-chloro-7-(cyclopentylamino)-3H-[1,2,3]triazolo[4,5-b]pyridin-3-yl)-3,4-dihydroxytetrahydrofuran-2-yl)methoxy)-2-hydroxyethyl)phosphonic acid], the IC50 is not above 100 nM.

The compound `COCCOc1nc(NC2CCCC2)c2cnn([C@@H]3O[C@H](COC(C)(CO)P(=O)(O)O)[C@@H](O)[C@H]3O)c2n1` (stereo partly drawn) [Example 145, (2-(((2R,3S,4R,5R)-5-(4-(cyclopentylamino)-6-(2-methoxyethoxy)-1H-pyrazolo[3,4-d]pyrimidin-1-yl)-3,4-dihydroxytetrahydrofuran-2-yl)methoxy)-1-hydroxypropan-2-yl)phosphonic acid] gave an IC50 not above 100 nM.

With `CC(C)(O)COc1nc(NC2CCCC2)c2cnn([C@@H]3O[C@H](COC(C)(CO)P(=O)(O)O)[C@@H](O)[C@H]3O)c2n1` (stereo partly drawn) [Example 146, (2-(((2R,3S,4R,5R)-5-(4-(cyclopentylamino)-6-(2-hydroxy-2-methylpropoxy)-1H-pyrazolo[3,4-d]pyrimidin-1-yl)-3,4-dihydroxytetrahydrofuran-2-yl)methoxy)-1-hydroxypropan-2-yl)phosphonic acid], the IC50 is not above 100 nM.

For `C[C@](CO)(OC[C@H]1O[C@@H](n2ncc3c(NC4CCCC4)nc(OCCO)nc32)[C@H](O)[C@@H]1O)P(=O)(O)O` [Example 147, ((S)-2-(((2R,3S,4R,5R)-5-(4-(cyclopentylamino)-6-(2-hydroxyethoxy)-1H-pyrazolo[3,4-d]pyrimidin-1-yl)-3,4-dihydroxytetrahydrofuran-2-yl)methoxy)-1-hydroxypropan-2-yl)phosphonic acid], the IC50 is not above 100 nM.

For the compound `COC[C@](C)(OC[C@H]1O[C@@H](n2nnc3c(NC4CCCC4)cc(Cl)nc32)[C@H](O)[C@@H]1O)P(=O)(O)O` [Example 148, ((R)-2-(((2R,3S,4R,5R)-5-(5-chloro-7-(cyclopentylamino)-3H-[1,2,3]triazolo[4,5-b]pyridin-3-yl)-3,4-dihydroxytetrahydrofuran-2-yl)methoxy)-1-methoxypropan-2-yl)phosphonic acid], the IC50 was not above 100 nM.

With `O=P(O)(O)[C@@H](CO)OC[C@H]1O[C@@H](n2nnc3c(NC4CCCC4)cc(Cl)nc32)[C@H](O)[C@@H]1O` [Example 149, ((S)-1-(((2R,3S,4R,5R)-5-(5-chloro-7-(cyclopentylamino)-3H-[1,2,3]triazolo[4,5-b]pyridin-3-yl)-3,4-dihydroxytetrahydrofuran-2-yl)methoxy)-2-hydroxyethyl)phosphonic acid], the IC50 was not above 100 nM.

Compound `COC[C@](CO)(OC[C@H]1O[C@@H](n2ncc3c(NC4CCCC4)nc(Cl)nc32)[C@H](O)[C@@H]1O)P(=O)(O)O` [Example 150, ((R)-2-(((2R,3S,4R,5R)-5-(6-chloro-4-(cyclopentylamino)-1H-pyrazolo[3,4-d]pyrimidin-1-yl)-3,4-dihydroxytetrahydrofuran-2-yl)methoxy)-1-hydroxy-3-methoxypropan-2-yl)phosphonic acid] returned a half-inhibitory concentration (IC50) not above 100 nM.

`CC(CO)(OC[C@H]1O[C@@H](n2ncc3c(NC4CCCC4)cc(Cl)nc32)[C@H](O)[C@@H]1O)P(=O)(O)O` (stereo partly drawn) [Example 152, (2-(((2R,3S,4R,5R)-5-(6-chloro-4-(cyclopentylamino)-1H-pyrazolo[3,4-b]pyridin-1-yl)-3,4-dihydroxytetrahydrofuran-2-yl)methoxy)-1-hydroxypropan-2-yl)phosphonic acid] had a half-inhibitory concentration (IC50) not above 100 nM.

Compound `CC(COCC1CC1)(OC[C@H]1O[C@@H](n2ncc3c(NC4CCCC4)nc(Cl)nc32)[C@H](O)[C@@H]1O)P(=O)(O)O` (stereo partly drawn) [Example 153, (2-(((2R,3S,4R,5R)-5-(6-chloro-4-(cyclopentylamino)-1H-pyrazolo[3,4-d]pyrimidin-1-yl)-3,4-dihydroxytetrahydrofuran-2-yl)methoxy)-1-(cyclopropylmethoxy)propan-2-yl)phosphonic acid] yielded a 50% inhibitory concentration (IC50) not above 100 nM.

These data come from patent US11325938B2, “CD73 inhibitors” (ORIC Pharmaceuticals, Inc., priority 2018, dated 2022).
